Here are results for one compound from publication PMC9218946, “Identification of a Subtype-Selective Allosteric Inhibitor of GluN1/GluN3 NMDA Receptors” (Frontiers in Pharmacology, 2022).

Structures are written as SMILES.

Assay [1] concerns the target T1, chimera GluN1/GluN2A^550-553 LEPF/MWPL (Homo sapiens, UniProt Q05586+Q12879, E551W/F553L/L550M).
T1 construct: expressed in transfected cells; host or cells: CHO, transient
The experiment in a line: Whole-cell patch-clamp on transiently transfected CHO cells, GluN2A chimera. It is filed as cell-based. On the procedure:
(§1) To establish GluN1/GluN3A stable cell lines, the human GluN1-1a (GenBank: NP_015566.1) and the rat GluN3A (GenBank: NP_612555.1) genes were subcloned into the pcDNA5-FRT-To and pcDNA3.1 vectors, respectively. An EGFP tag was added to the C-terminus of GluN1 or GluN3A using a T2A linker for identification of transfected cells during transient transfection. Point mutations were introduced by site-directed mutagenesis using PrimeSTAR (Takara). The human GluN2A (GenBank: NP_000824.1) gene was subcloned into the pcDNA3.1 vector. The chimeras GluN3A^670-673 MWPL/LEPF and GluN2A^550-553 LEPF/MWPL were generated using In-Fusion HD Cloning kits (Takara). All constructs were confirmed by DNA sequencing (Beijing Genomics Institute).
(§2) The Flp-in T-Rex 293 cell lines (Invitrogen), stably expressing GluN1/GluN3A were grown in DMEM basal medium (Gibco) supplemented with 10% fetal bovine serum (FBS, Invitrogen), 15 μg/ml blasticidin S (Invitrogen), 50 μg/ml hygromycin B (Invitrogen) and 500 μg/ml G418 (Gibco). Expression in cell lines was induced with 1 μg/ml doxycycline (Invitrogen) 24–28 h prior to the experiments. Chinese hamster ovary (CHO) cells were grown in DMEM-F12 basal medium (Gibco) supplemented with 10% FBS. In the study on the action sites of WZB117, all whole-cell patch-clamp recordings were performed on CHO cells. […]

Another assay has as its system GluN2-containing NMDARs. The experiment in a line: Whole-cell patch-clamp, NMDA-induced native currents in acutely isolated hippocampal neurons. The conditions noted are these: 10 μM WZB117. The format is cell-based, rat. As to the method:
Hippocampal neurons were obtained from Sprague-Dawley rats (aged P7-14). Briefly, the isolated hippocampal tissues were cut into approximately […] slices along the sagittal plane and were digested with 3 mg/ml proteinase (Sigma-Aldrich) at 32°C for 8 min. Then 1 mg/ml bovine serum albumin (Sangon Biotech) and 1 mg/ml trypsin inhibitor (Sigma-Aldrich) were used to stop the digestion. A few slices of the hippocampus were gently blown into single cells with the dissecting solution, then transferred to a dish and left to rest for 20 min before experiments. The dishes were preprocessed. Essentially, the bottom of the dish was covered with discarded cell suspension the day before the experiment and was washed and dried the next day, which prevented the neurons from sticking to the bottom too tightly. The dissecting solution contained (in mM): 82 Na2SO4, 30 K2SO4, 5 MgCl2, 1 Na pyruvate, 10 HEPES, and 20 glucose. The pH was adjusted to 7.2 using NaOH ([Xie et al., 2020]).
Whole-cell patch-clamp recordings were performed at room temperature (22–25°C) using an EPC-10 amplifier and Patch Master Software (HEKA). Pipettes were pulled from borosilicate glass capillaries (World Precision Instruments), and the resistances were 3–5 MΩ when filled with the intracellular solution. […]
A general note: In patch-clamp work, channel activity is measured electrically.

Assay [2] concerns GluN1/GluN3A with mutations W671A and L673A of the GluN3A subunit. Description: Whole-cell patch-clamp on transiently transfected CHO cells, GluN3A pre-M1 alanine mutants. It is filed as cell-based. On the procedure:
as §1, §2

Assay [3] concerns the target T2, chimera GluN3A^670-673 MWPL/LEPF (UniProt Q05586+Q9R1M7, L673F/M670L/W671E).
T2 construct: expressed in transfected cells; host or cells: CHO, transient
The experiment in a line: Whole-cell patch-clamp on transiently transfected CHO cells, GluN3A chimera. It is filed as cell-based. As to the method: as §1, §2

T1 sequence (Q12879 23-1464 L550M/E551W/F553L, other chains not shown): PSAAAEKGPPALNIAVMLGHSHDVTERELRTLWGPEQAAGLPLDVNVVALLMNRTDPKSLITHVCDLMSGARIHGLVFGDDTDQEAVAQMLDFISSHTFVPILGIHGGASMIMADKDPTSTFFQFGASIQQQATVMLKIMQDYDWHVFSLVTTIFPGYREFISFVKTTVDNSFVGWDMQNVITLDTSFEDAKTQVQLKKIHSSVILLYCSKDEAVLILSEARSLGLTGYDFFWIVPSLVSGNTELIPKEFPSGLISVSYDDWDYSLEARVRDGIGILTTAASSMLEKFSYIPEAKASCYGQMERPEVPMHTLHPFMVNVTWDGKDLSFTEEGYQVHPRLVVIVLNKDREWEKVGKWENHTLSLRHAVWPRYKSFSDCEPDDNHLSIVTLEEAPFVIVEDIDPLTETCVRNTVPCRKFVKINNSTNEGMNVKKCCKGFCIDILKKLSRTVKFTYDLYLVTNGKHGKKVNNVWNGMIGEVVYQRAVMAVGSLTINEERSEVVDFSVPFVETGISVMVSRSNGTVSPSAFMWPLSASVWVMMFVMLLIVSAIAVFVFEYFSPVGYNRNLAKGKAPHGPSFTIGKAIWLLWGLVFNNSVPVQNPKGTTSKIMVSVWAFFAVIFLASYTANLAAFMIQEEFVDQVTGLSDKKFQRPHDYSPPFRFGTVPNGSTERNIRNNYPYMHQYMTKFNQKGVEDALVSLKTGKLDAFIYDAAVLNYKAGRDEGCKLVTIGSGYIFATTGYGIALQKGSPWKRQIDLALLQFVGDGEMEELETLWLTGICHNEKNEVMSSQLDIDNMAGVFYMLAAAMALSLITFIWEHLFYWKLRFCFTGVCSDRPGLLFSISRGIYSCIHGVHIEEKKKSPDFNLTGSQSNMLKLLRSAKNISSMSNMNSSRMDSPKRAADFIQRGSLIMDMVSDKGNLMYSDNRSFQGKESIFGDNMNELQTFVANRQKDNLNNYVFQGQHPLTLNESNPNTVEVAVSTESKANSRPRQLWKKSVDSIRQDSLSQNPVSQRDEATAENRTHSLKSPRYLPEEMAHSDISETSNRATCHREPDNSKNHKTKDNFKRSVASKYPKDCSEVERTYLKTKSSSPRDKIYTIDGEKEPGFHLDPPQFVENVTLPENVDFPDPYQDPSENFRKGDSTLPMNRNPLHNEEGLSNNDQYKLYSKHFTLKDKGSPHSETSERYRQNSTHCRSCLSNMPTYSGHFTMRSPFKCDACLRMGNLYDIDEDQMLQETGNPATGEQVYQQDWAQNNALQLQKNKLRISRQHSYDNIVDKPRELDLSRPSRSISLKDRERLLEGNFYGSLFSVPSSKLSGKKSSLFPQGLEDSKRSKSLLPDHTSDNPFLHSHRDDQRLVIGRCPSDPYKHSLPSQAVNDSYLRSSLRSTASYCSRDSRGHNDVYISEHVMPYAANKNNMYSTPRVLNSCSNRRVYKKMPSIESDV
T2 sequence (Q9R1M7 24-1135 M670L/W671E/L673F, other chains not shown): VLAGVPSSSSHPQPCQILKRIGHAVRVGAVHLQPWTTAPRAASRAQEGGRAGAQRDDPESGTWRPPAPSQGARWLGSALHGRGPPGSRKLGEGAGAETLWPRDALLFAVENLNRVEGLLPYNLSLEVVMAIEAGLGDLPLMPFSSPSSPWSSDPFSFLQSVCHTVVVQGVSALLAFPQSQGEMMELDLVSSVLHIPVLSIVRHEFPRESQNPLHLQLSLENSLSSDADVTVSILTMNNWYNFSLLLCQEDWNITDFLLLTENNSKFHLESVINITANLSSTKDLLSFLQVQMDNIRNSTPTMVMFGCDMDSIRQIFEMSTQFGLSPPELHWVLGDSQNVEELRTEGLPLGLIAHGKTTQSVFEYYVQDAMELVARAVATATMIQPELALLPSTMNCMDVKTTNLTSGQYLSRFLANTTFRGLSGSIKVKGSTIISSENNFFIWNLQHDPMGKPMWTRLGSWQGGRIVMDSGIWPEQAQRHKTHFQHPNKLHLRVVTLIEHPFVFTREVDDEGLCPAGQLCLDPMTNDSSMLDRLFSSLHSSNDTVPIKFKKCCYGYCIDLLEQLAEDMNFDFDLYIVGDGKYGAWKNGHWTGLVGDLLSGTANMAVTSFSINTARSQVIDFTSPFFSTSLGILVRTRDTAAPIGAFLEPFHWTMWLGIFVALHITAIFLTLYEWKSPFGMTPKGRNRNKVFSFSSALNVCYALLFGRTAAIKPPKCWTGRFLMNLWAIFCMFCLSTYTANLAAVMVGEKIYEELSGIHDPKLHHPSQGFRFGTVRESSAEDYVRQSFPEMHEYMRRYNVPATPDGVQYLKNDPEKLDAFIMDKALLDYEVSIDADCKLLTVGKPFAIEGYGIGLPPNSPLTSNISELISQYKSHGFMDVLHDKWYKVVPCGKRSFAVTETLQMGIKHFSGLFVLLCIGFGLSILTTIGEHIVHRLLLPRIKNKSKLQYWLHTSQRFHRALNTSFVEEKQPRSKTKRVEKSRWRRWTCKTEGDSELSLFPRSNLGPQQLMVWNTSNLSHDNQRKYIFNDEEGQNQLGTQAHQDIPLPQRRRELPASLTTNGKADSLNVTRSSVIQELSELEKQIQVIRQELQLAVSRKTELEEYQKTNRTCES

For the compound `O=C(Oc1cccc(F)c1OC(=O)c1cccc(O)c1)c1cccc(O)c1` [WZB117, 3-fluoro-1,2-phenylene bis(3-hydroxybenzoate)], the sensitivity of chimera entry in assay [1] was “acquired higher sensitivity”. In addition, the “I drug/I control” value with GluN2-containing NMDARs amounted to 0.73 ± 0.01. Also, the “influence of mutations on inhibitory effect” value in assay [2] is reported as “significantly influenced the inhibitory effect”. Further, the inhibition on chimera entry in assay [3] is “greatly reduced”.
